Columns and labels:
[1] = tested on: LOLMG (annual ryegrass); test: Post-emergence herbicidal activity, cool season; format: in vivo, Lolium multiflorum; conditions: abraded plants sprayed at 300, 100, 30 and 10 g/ha; about 14 days after treatment
Protocol: (§1) In another set of tests, the post-emergence activity of compounds of this invention was evaluated on the cool season species listed above. The following procedure was used.
(§2) A pre-prepared topsoil mixture (described above) was placed in a pot and compacted to a depth of 1.0 to 1.25 cm from the top of the pot. Seeds of each of several monocotyledonous and dicotyledonous annual plant species were placed on top of the soil. The seeds were covered with a mixture of 50% topsoil and 50% Rediearth™ in sufficient quantity to level-fill the pots. The pots were then placed on a greenhouse bench and subirrigated as needed.
(§3) When plants growing from the seeds had emerged and reached a suitable growth stage for post-emergence treatment, typically 9 to 14 days after planting, above-ground parts of the plants were subjected to a pre-treatment involving abrasion to create greater opportunity for foliar uptake of subsequently applied compounds. Abrasion was performed using garnet 200w particles applied with a Sears Craftsman hand-held sandblaster operated at approximately 850 kPa (50 psig) pressure.
(§4) A known amount of each test compound dissolved or suspended in an appropriate organic solvent was diluted with a 50:50 mix of acetone and water and applied to the plants by spraying with a standard spray nozzle in a spray volume of […] at a spray pressure of 511 kPa (30 psig). Only the compounds of Examples 1, 8-15 and 17-22 were included in post-emergence tests. Application rates for these compounds were 300, 100, 30 and 10 g/ha. Control plants were abraded but not sprayed.
(§5) After treatment the plants were placed in a greenhouse with an 18/13° C. day/night temperature regime and were subsequently watered as needed for growth. Approximately 14 days after treatment, the plants were observed and herbicidal efficacy recorded as percent inhibition by comparison with control plants. GR80 values were assigned for each compound as described above for the pre-emergence tests.

[2] = tested on: STEME (common chickweed); test: Pre-emergence herbicidal activity, cool season; format: in vivo, Stellaria media; conditions: lowest tested rate with 80% or greater inhibition; rates 300, 100, 30, 10 g/ha; about 14 days
Procedure, shortened: (§6)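 Seeds sown in sterilised fertilised topsoil received surface-applied compound in 50:50 acetone/water, typically at 300, 100, 30 and 10 g/ha, then greenhouse-grown at 30/21° C (warm-season species) or 18/13° C (cool-season species). Percent inhibition versus untreated plants was scored at about 14 days, giving GR80; an asterisk marks activity short of 80% at the top rate.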

[3] = tested on: SASKR (russian thistle); test: Pre-emergence herbicidal activity, cool season; format: in vivo, Salsola kali; conditions: lowest tested rate with 80% or greater inhibition; rates 300, 100, 30, 10 g/ha; about 14 days
Procedure, shortened: as §6

[4] = tested on: SINAR (wild mustard); test: Pre-emergence herbicidal activity, cool season; format: in vivo, Sinapis arvensis; conditions: lowest tested rate with 80% or greater inhibition; rates 300, 100, 30, 10 g/ha; about 14 days
Procedure, shortened: as §6

[5] = tested on: ALOMY (blackgrass); test: Post-emergence herbicidal activity, cool season; format: in vivo, Alopecurus myosuroides; conditions: abraded plants sprayed at 300, 100, 30 and 10 g/ha; about 14 days after treatment
Protocol: as §1, §2, §3, §4, §5

[6] = tested on: PANMI (wild proso millet); test: Pre-emergence herbicidal activity, warm season; format: in vivo, Panicum miliaceum; conditions: GR80 = lowest tested rate (300, 100, 30, 10 g/ha) with 80% or greater inhibition; approx. 14 days after treating; 30/21° C.
Procedure, shortened: (§7)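 Herbicidal efficacy was judged visually as percent inhibition compared with untreated plants some 14 days after treatment, giving GR80 over doses of 10 to 300 g/ha. Proso millet and crabgrass grew at 30/21 °C; blackgrass and wild buckwheat grew at 18/13 °C.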

[7] = tested on: AGRRE (quackgrass (seedling)); test: Post-emergence herbicidal activity, cool season; format: in vivo, Elymus repens; conditions: abraded plants sprayed at 300, 100, 30 and 10 g/ha; about 14 days after treatment
Protocol: as §1, §2, §3, §4, §5

[8] = tested on: AEGCY (jointed goatgrass); test: Post-emergence herbicidal activity, cool season; format: in vivo, Aegilops cylindrica; conditions: abraded plants sprayed at 300, 100, 30 and 10 g/ha; about 14 days after treatment
Protocol: as §1, §2, §3, §4, §5

[9] = tested on: AVEFA (wild oat); test: Post-emergence herbicidal activity, cool season; format: in vivo, Avena fatua; conditions: abraded plants sprayed at 300, 100, 30 and 10 g/ha; about 14 days after treatment
Protocol: as §1, §2, §3, §4, §5

[10] = tested on: SORVU (shattercane); test: Pre-emergence herbicidal activity, warm season; format: in vivo, Sorghum vulgare; conditions: GR80 = lowest tested rate (300, 100, 30, 10 g/ha) with 80% or greater inhibition; approx. 14 days after treating; 30/21° C.
Procedure, shortened: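 Activity is expressed as the rate giving 80% inhibition, with 300, 100, 30 and 10 g/ha typically tested. An asterisk marks activity short of 80% at the top rate. Warm-season grasses were held at 30/21 °C; cool-season blackgrass and wild buckwheat at 18/13 °C; scoring at about 14 days.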

[11] = tested on: LAMPU (purple deadnettle); test: Pre-emergence herbicidal activity, cool season; format: in vivo, Lamium purpureum; conditions: lowest tested rate with 80% or greater inhibition; rates 300, 100, 30, 10 g/ha; about 14 days
Procedure, shortened: as §6

[12] = tested on: GALAP (catchweed bedstraw); test: Pre-emergence herbicidal activity, cool season; format: in vivo, Galium aparine; conditions: lowest tested rate with 80% or greater inhibition; rates 300, 100, 30, 10 g/ha; about 14 days
Procedure, shortened: as §6

[13] = tested on: BROTE (downy brome); test: Post-emergence herbicidal activity, cool season; format: in vivo, Bromus tectorum; conditions: abraded plants sprayed at 300, 100, 30 and 10 g/ha; about 14 days after treatment
Protocol: as §1, §2, §3, §4, §5

[14] = tested on: SETVI (green foxtail); test: Post-emergence herbicidal activity, cool season; format: in vivo, Setaria viridis; conditions: abraded plants sprayed at 300, 100, 30 and 10 g/ha; about 14 days after treatment
Protocol: as §1, §2, §3, §4, §5

[15] = tested on: AGSST (creeping bentgrass); test: Post-emergence herbicidal activity, cool season; format: in vivo, Agrostis stolonifera; conditions: abraded plants sprayed at 300, 100, 30 and 10 g/ha; about 14 days after treatment
Protocol: as §1, §2, §3, §4, §5

[16] = tested on: POLCO (wild buckwheat); test: Pre-emergence herbicidal activity, cool season; format: in vivo, Polygonum convolvulus; conditions: lowest tested rate with 80% or greater inhibition; rates 300, 100, 30, 10 g/ha; about 14 days
Procedure, shortened: as §7

[17] = tested on: VERPE (creeping speedwell); test: Pre-emergence herbicidal activity, cool season; format: in vivo, Veronica persicaria; conditions: lowest tested rate with 80% or greater inhibition; rates 300, 100, 30, 10 g/ha; about 14 days
Procedure, shortened: as §6

Question: Which results are given for `CCN(CC)C(=O)n1cnc(S(=O)(=O)C(F)(F)SCCOC(C)=O)n1` [Example 21]?
Answer: Post-emergence activity GR80, LOLMG [1]: [empty]; Pre-emergence activity GR80, STEME [2]: [empty]; Pre-emergence activity GR80, SASKR [3]: [empty]; Pre-emergence activity GR80, SINAR [4]: [empty]; Post-emergence activity GR80, ALOMY [5]: [empty]; Pre-emergence activity (GR80) PANMI [6]: * (activity observed, at least at highest rate, but <80% inhibition); Post-emergence activity GR80, AGRRE [7]: [empty]; Post-emergence activity GR80, AEGCY [8]: [empty]; Post-emergence activity GR80, AVEFA [9]: [empty]; Pre-emergence activity (GR80) SORVU [10]: * (activity observed, at least at highest rate, but <80% inhibition); Pre-emergence activity GR80, LAMPU [11]: 300 g/ha; Pre-emergence activity GR80, GALAP [12]: 300 g/ha; Post-emergence activity GR80, BROTE [13]: [empty]; Post-emergence activity GR80, SETVI [14]: [empty]; Post-emergence activity GR80, AGSST [15]: [empty]; Pre-emergence activity GR80, POLCO [16]: [empty]; Pre-emergence activity GR80, VERPE [17]: 300 g/ha
